Results reported in PubChem BioAssay (NCI).
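Growth conditions: 96-well plates. Treatment: test compound, 48 hours, 5 concentrations. Analysis: linear interpolation between bracketing concentrations; unreached endpoints set to highest concentration. TGI: concentration producing complete growth inhibition.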

Legend:
Test in all cases: NCI-60 cell line screen, 48 h
SF-539 CNS = system: SF-539 CNS
RXF 393 renal = system: RXF 393 renal
UACC-62 melanoma = system: UACC-62 melanoma
COLO 205 colon = system: COLO 205 colon
HL-60(TB) leukemia = system: HL-60(TB) leukemia
TK-10 renal = system: TK-10 renal
A549 NSCLC = system: A549 NSCLC
SR leukemia = system: SR leukemia
SK-MEL-5 melanoma = system: SK-MEL-5 melanoma
DLD-1 colon = system: DLD-1 colon
ACHN renal = system: ACHN renal
KM12 colon = system: KM12 colon
NCI-H226 lung = system: NCI-H226 lung
NCI-H460 lung = system: NCI-H460 lung
SNB-19 CNS = system: SNB-19 CNS
XF 498 CNS = system: XF 498 CNS
SW-620 colon = system: SW-620 colon
IGROV1 ovarian = system: IGROV1 ovarian
SF-295 CNS = system: SF-295 CNS
HCT-116 colon = system: HCT-116 colon
SK-MEL-28 melanoma = system: SK-MEL-28 melanoma
OVCAR-3 ovarian = system: OVCAR-3 ovarian
K-562 leukemia = system: K-562 leukemia
M14 melanoma = system: M14 melanoma
NCI-H23 lung = system: NCI-H23 lung
HT29 colon = system: HT29 colon
SK-OV-3 ovarian = system: SK-OV-3 ovarian
DMS 273 small cell lung = system: DMS 273 small cell lung
786-0 renal = system: 786-0 renal
HOP-92 NSCLC = system: HOP-92 NSCLC
SNB-78 CNS = system: SNB-78 CNS
HOP-62 NSCLC = system: HOP-62 NSCLC
KM20L2 colon = system: KM20L2 colon
RPMI-8226 leukemia = system: RPMI-8226 leukemia
NCI-H522 lung = system: NCI-H522 lung
M19-MEL melanoma = system: M19-MEL melanoma
LOX IMVI melanoma = system: LOX IMVI melanoma
OVCAR-8 ovarian = system: OVCAR-8 ovarian
U251 CNS = system: U251 CNS
HCT-15 colon = system: HCT-15 colon
UO-31 renal = system: UO-31 renal
MOLT-4 leukemia = system: MOLT-4 leukemia
CAKI-1 renal = system: CAKI-1 renal
UACC-257 melanoma = system: UACC-257 melanoma
SN12C renal = system: SN12C renal
HCC-2998 colon = system: HCC-2998 colon
OVCAR-4 ovarian = system: OVCAR-4 ovarian
OVCAR-5 ovarian = system: OVCAR-5 ovarian
MALME-3M melanoma = system: MALME-3M melanoma
DMS 114 small cell lung = system: DMS 114 small cell lung
SNB-75 CNS = system: SNB-75 CNS
SF-268 CNS = system: SF-268 CNS
EKVX NSCLC = system: EKVX NSCLC
CCRF-CEM leukemia = system: CCRF-CEM leukemia
LXFL 529 NSCLC = system: LXFL 529 NSCLC
SK-MEL-2 melanoma = system: SK-MEL-2 melanoma
A498 renal = system: A498 renal

Measured: TGI

CCCCN(CCCC)CC(C(=O)Nc1ccccc1)/C(C)=N\NC(=O)c1ccncc1 (centres undefined)
> 100 µM: SF-539 CNS | RXF 393 renal | UACC-62 melanoma | COLO 205 colon | HL-60(TB) leukemia | TK-10 renal | A549 NSCLC | SR leukemia | SK-MEL-5 melanoma | DLD-1 colon | ACHN renal | KM12 colon | NCI-H226 lung | NCI-H460 lung | SNB-19 CNS | XF 498 CNS | SW-620 colon | IGROV1 ovarian | SF-295 CNS | HCT-116 colon | SK-MEL-28 melanoma | OVCAR-3 ovarian | K-562 leukemia | M14 melanoma | NCI-H23 lung | HT29 colon | SK-OV-3 ovarian | DMS 273 small cell lung | 786-0 renal | HOP-92 NSCLC | SNB-78 CNS | HOP-62 NSCLC | KM20L2 colon | RPMI-8226 leukemia | NCI-H522 lung | M19-MEL melanoma | LOX IMVI melanoma | OVCAR-8 ovarian | U251 CNS | HCT-15 colon | UO-31 renal | MOLT-4 leukemia | CAKI-1 renal | UACC-257 melanoma | SN12C renal | HCC-2998 colon | OVCAR-4 ovarian | OVCAR-5 ovarian | MALME-3M melanoma | DMS 114 small cell lung | SNB-75 CNS | SF-268 CNS

COc1c(Cl)cc(Cl)cc1S(=O)O
> 100 µM: SF-539 CNS | RXF 393 renal | UACC-62 melanoma | HL-60(TB) leukemia | TK-10 renal | SR leukemia | DLD-1 colon | ACHN renal | KM12 colon | NCI-H460 lung | EKVX NSCLC | SNB-19 CNS | XF 498 CNS | CCRF-CEM leukemia | HCT-116 colon | SK-MEL-28 melanoma | OVCAR-3 ovarian | K-562 leukemia | LXFL 529 NSCLC | M14 melanoma | NCI-H23 lung | HT29 colon | SK-OV-3 ovarian | SNB-78 CNS | HOP-62 NSCLC | NCI-H522 lung | M19-MEL melanoma | LOX IMVI melanoma | U251 CNS | UO-31 renal | MOLT-4 leukemia | SK-MEL-2 melanoma | A498 renal | UACC-257 melanoma | SN12C renal | HCC-2998 colon | OVCAR-4 ovarian | OVCAR-5 ovarian | MALME-3M melanoma | DMS 114 small cell lung | SNB-75 CNS | SF-268 CNS
